The source of these data is paper PMC12136037, “Type II kinase inhibitors that target Parkinson’s disease–associated LRRK2” (Science Advances, 2025).

Holding throughout (experiment): DSF 100 kinase selectivity screen;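 also: compound tested at 20 µM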
Holding throughout (format): binding

Experiment [1] has as its target T1, ~100 representative kinases (Homo sapiens, UniProt O14976).
T1 construct: Recombinant protein kinase domains with a concentration of 2 μM
T1 sequence (O14976 1-1311): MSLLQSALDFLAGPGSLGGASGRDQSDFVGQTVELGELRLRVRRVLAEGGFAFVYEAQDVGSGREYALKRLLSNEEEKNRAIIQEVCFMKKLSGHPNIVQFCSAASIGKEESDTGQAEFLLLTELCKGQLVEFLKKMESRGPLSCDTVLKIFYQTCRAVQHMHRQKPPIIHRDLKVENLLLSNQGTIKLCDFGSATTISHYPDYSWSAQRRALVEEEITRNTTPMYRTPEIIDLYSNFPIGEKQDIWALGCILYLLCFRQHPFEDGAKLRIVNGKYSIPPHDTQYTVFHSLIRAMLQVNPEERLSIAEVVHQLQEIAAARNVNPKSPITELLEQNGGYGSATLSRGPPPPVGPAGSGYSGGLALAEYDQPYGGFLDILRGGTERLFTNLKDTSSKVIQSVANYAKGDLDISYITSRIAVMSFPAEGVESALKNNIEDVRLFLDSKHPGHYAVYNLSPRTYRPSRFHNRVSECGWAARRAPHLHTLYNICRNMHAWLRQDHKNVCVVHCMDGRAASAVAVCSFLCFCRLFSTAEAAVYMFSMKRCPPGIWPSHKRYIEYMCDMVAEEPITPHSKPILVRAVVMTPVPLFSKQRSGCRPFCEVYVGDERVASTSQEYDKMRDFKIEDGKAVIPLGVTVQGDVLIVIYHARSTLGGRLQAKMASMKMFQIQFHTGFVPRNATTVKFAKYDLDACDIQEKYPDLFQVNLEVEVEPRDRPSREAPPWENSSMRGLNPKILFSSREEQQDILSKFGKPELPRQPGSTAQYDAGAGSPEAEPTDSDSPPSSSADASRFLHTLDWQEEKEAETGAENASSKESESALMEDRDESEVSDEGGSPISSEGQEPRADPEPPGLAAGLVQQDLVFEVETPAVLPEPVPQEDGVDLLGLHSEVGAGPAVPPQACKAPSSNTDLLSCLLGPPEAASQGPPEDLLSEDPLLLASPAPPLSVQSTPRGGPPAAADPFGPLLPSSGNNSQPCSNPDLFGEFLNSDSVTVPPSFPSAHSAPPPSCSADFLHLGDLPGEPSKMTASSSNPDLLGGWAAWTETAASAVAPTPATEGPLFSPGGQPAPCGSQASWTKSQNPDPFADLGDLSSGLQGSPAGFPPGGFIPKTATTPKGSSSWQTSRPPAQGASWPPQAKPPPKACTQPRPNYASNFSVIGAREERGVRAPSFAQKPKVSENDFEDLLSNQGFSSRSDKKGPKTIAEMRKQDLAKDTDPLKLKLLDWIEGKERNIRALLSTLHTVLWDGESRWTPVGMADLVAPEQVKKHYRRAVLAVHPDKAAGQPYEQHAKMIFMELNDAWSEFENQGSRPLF
The note with it: protein GAK; average of three replicates. Put shortly: (§1)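 Each kinase domain, at 2 μM, is mixed with 20 μM test compound and SYPRO Orange in Hepes (20 mM, pH 7.5) with 500 mM NaCl. Temperature is then raised at 3°C/min and fluorescence-monitored unfolding yields the melting temperature change, ΔTm in degrees Celsius.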

The target in experiment [2] is T2, ~100 representative kinases (Homo sapiens, UniProt O00444).
T2 construct: Recombinant protein kinase domains with a concentration of 2 μM
T2 sequence (O00444 1-970): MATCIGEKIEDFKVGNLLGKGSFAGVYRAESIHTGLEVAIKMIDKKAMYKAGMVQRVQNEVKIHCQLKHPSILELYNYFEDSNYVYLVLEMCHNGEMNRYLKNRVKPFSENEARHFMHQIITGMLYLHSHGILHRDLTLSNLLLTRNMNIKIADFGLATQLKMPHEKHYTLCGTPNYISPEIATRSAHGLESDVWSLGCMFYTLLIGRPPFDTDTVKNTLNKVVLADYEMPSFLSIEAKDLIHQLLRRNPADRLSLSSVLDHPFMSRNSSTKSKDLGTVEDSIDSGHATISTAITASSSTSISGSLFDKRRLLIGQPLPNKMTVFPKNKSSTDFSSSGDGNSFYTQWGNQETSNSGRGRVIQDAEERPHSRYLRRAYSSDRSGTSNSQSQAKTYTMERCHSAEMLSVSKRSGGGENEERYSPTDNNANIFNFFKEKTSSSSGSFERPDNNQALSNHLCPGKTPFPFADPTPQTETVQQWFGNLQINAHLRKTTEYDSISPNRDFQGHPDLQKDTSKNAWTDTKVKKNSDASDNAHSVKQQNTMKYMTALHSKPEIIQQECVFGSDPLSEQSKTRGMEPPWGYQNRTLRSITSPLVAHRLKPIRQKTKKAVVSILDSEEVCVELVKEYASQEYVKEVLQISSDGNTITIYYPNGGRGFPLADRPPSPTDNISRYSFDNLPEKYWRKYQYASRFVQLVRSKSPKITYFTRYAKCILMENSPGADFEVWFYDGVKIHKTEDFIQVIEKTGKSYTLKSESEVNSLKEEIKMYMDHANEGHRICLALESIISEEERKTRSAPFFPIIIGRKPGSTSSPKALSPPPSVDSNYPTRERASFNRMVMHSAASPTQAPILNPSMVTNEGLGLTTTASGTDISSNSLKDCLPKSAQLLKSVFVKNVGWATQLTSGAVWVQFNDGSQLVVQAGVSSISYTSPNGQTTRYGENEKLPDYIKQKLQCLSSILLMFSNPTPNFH
Conditions: protein PLK4; average of three replicates. The method, boiled down:
as §1

The target of experiment [3] is T3, ~100 representative kinases (Homo sapiens, UniProt P29317).
T3 construct: Recombinant protein kinase domains with a concentration of 2 μM
T3 sequence (P29317 24-976): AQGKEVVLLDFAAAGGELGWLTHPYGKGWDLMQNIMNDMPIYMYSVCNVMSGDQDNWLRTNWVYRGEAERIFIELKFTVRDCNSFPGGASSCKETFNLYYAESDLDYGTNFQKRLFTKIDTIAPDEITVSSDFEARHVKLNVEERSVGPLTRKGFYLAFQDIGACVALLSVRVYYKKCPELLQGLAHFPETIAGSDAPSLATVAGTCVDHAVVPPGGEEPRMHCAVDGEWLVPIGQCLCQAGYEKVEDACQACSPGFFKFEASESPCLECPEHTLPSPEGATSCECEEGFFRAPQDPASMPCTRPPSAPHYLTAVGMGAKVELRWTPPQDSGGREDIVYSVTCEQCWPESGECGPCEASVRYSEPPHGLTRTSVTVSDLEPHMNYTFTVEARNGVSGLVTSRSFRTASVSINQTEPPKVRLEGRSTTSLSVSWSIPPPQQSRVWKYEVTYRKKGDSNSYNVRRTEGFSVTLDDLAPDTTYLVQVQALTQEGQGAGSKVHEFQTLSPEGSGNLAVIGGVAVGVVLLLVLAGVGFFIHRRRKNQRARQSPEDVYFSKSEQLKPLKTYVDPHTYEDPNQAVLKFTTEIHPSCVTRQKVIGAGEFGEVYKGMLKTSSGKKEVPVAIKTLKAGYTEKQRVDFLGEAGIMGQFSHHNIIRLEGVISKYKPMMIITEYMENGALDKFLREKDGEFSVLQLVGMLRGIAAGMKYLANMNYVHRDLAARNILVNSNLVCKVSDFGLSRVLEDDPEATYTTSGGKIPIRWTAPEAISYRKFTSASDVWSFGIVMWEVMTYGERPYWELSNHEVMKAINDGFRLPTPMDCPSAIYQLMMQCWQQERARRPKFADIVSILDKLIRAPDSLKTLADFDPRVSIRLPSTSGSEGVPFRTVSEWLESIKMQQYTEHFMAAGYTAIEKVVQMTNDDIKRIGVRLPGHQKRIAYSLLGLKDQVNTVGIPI
The note with it: Protein EPHA2; average of three replicates. Put shortly:
as §1

Experiment [4] has as its target T4, ~100 representative kinases (Homo sapiens, UniProt O96013).
T4 construct: Recombinant protein kinase domains with a concentration of 2 μM
The note with it: protein PAK4; average of three replicates. Put shortly: as §1

Experiment [5] has as its target T5, ~100 representative kinases (Homo sapiens, UniProt Q13153).
T5 construct: Recombinant protein kinase domains with a concentration of 2 μM
The note with it: protein PAK1; average of three replicates. The method, boiled down: as §1

Experiment [6] deals with T6, ~100 representative kinases (Homo sapiens, UniProt Q96NX5).
T6 construct: Recombinant protein kinase domains with a concentration of 2 μM
T6 sequence (Q96NX5 whole entry, the tested form may be a part): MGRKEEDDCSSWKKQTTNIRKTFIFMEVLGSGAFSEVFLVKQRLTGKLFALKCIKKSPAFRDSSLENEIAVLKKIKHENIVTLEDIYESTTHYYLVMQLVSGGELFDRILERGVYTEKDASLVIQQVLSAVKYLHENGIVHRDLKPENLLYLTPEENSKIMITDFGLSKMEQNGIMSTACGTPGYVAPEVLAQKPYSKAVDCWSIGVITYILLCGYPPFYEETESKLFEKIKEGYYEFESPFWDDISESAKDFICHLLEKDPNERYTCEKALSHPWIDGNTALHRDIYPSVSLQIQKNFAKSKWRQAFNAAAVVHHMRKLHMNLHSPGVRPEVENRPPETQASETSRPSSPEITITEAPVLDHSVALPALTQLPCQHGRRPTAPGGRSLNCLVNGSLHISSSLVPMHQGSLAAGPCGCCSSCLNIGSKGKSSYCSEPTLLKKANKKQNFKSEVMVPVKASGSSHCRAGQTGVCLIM
The note with it: Protein CAMK1G; average of three replicates. The method, boiled down:
as §1

T4 sequence (O96013 whole entry, the tested form may be a part): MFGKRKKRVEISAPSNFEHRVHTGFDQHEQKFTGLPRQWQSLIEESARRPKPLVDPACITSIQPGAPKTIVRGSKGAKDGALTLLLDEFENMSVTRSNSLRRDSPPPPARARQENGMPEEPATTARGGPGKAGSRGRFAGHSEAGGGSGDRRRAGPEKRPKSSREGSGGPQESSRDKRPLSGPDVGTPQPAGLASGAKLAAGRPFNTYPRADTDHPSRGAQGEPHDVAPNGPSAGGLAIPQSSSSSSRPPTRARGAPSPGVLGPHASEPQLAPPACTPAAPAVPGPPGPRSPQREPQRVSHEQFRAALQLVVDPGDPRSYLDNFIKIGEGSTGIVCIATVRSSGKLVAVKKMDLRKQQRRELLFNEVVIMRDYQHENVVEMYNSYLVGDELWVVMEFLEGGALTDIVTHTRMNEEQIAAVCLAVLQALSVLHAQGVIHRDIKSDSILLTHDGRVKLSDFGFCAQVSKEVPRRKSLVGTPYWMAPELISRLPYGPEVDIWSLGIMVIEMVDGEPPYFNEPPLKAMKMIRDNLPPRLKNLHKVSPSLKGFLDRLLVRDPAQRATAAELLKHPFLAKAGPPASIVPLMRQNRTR
T5 sequence (Q13153 whole entry, the tested form may be a part): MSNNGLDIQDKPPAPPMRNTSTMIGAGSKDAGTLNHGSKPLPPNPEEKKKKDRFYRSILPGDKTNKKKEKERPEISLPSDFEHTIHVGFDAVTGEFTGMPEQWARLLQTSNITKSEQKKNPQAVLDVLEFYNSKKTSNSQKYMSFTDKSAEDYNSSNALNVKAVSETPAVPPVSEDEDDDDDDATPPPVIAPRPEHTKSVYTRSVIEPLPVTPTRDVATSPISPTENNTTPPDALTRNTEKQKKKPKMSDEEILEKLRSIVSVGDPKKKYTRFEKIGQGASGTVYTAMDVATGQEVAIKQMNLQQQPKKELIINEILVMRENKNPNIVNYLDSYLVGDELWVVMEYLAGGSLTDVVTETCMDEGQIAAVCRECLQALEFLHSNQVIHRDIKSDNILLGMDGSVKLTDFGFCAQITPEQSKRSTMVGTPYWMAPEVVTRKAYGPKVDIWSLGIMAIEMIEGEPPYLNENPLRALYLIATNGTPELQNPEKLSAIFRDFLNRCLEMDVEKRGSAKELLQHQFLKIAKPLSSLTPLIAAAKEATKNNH

Regarding `COc1cc(S(C)(=O)=O)ccc1Nc1nc(N(C)C)c2c(Cl)c[nH]c2n1` [Compound 37], the dTm in experiment [1] is 3.76 K; in experiment [2], 4.57 K; in experiment [3], -0.56 K; in experiment [4], 0.22 K; in experiment [5] it was -0.88 K; in experiment [6], 1.99 K.

Turning to `CCNc1nc(Nc2cc(F)c(C(=O)N3CCOCC3)cc2OC)ncc1C(F)(F)F` [GNE-7915], the dTm in experiment [1] is on record as 0.77 K; in experiment [2], 1.52 K; in experiment [3], 0.40 K; in experiment [4], 1.08 K; in experiment [5], -0.11 K; in experiment [6] it was 0.32 K.

Turning to `Cc1ccc(C(=O)Nc2ccc(CN3CCN(C)CC3)c(C(F)(F)F)c2)cc1C#Cc1cnc2[nH]ncc2c1` [GZD-824, reference compound], the dTm stood at 11.23 K in experiment [1]; 2.97 K in experiment [2]; 17.23 K in experiment [3]; 3.27 K in experiment [4]; 4.19 K in experiment [5]; 0.14 K in experiment [6].

For the compound `C[C@@H]1CN(c2cc(-c3n[nH]c4ccc(OC5(C)CC5)cc34)ncn2)C[C@H](C)O1` [MLi2], the dTm in experiment [1] is on record as 0.31 K; in experiment [2] it was 3.07 K; in experiment [3], 0.27 K; in experiment [4], -0.10 K; in experiment [5], -0.13 K; in experiment [6], 3.50 K.

For the compound `Cn1cc(-c2c[nH]c3ncnc(N4CCOCC4)c23)cc1C#N` [PFE-360], the dTm is -0.50 K in experiment [1]; 4.43 K in experiment [2]; 0.68 K in experiment [3]; 4.09 K in experiment [4]; -0.19 K in experiment [5]; -0.81 K in experiment [6].
